Laboratory results taken from PubChem BioAssay AID256 (DTP/NCI, 2004).
Where “and” joins values, the source holds several entries; their conditions need not be identical. Identical values can stand only once. Inconclusive results and toxic doses are left out.

Tested on: CD2F1 mice, L1210 leukemia ip, survival T/C
Experiment: NCI In Vivo Anticancer Drug Screen. Data for tumor model L1210 Leukemia (intraperitoneal) in CD2F1 (CDF1) mice
Details: endpoint: mean survival time, higher = longer survival
Method in brief: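 In this screen, transplantable tumors were grown in mice given either the compound or its vehicle. Results were expressed as the treated measurement relative to the control measurement.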

[1] = dose: 100.0 mg/kg/injection, schedule: Q01DX001 (ip), vehicle: saline with Tween-80
[2] = dose: 100.0 mg/kg/injection, schedule: Q01DX009 (ip), vehicle: saline with Tween-80
[3] = dose: 100.0 mg/kg/injection, schedule: Q04DX002 (ip), vehicle: saline
[4] = dose: 200.0 mg/kg/injection, schedule: Q04DX002 (ip), vehicle: saline
[5] = dose: 100.0 mg/kg/injection, schedule: Q04DX003 (ip), vehicle: saline with Tween-80
[6] = dose: 200.0 mg/kg/injection, schedule: Q01DX009 (ip), vehicle: saline with Tween-80
[7] = dose: 200.0 mg/kg/injection, schedule: Q04DX003 (ip), vehicle: saline with Tween-80
[8] = dose: 400.0 mg/kg/injection, schedule: Q01DX009 (ip), vehicle: saline with Tween-80
[9] = dose: 400.0 mg/kg/injection, schedule: Q04DX003 (ip), vehicle: saline with Tween-80
[10] = dose: 200.0 mg/kg/injection, schedule: Q04DX003 (ip), vehicle: other
[11] = dose: 400.0 mg/kg/injection, schedule: Q04DX003 (ip), vehicle: other

Q: How did the T/C (dose: 44.0 mg/kg/injection, schedule: Q01DX001 (ip), vehicle: saline with Tween-80) turn out when `CC(=O)Oc1ccc(Nc2c3ccccc3nc3ccccc23)cc1` was run?
A: 119 % of control

Q: What about the T/C (dose: 44.0 mg/kg/injection, schedule: Q01DX009 (ip), vehicle: saline with Tween-80) of the same molecule?
A: 155 % of control

Q: What about the T/C (dose: 66.0 mg/kg/injection, schedule: Q01DX001 (ip), vehicle: saline with Tween-80) of the same molecule?
A: 109 % of control

Q: What about the T/C (dose: 66.0 mg/kg/injection, schedule: Q01DX009 (ip), vehicle: saline with Tween-80) of the same molecule?
A: 94 % of control

Q: And the T/C [1]?
A: 152 % of control

Q: What about the T/C [2] of the same molecule?
A: 88 % of control

Q: And the T/C (dose: 100.0 mg/kg/injection, schedule: Q04DX002 (ip), vehicle: saline with Tween-80)?
A: 177 % of control

Q: How did the T/C [3] turn out when `N#CS.[Co+3].[NH-]CC[NH-].[NH-]CC[NH-].[NH-]CC[SH2+]` was run?
A: 112 % of control

Q: What about the T/C [4] of the same molecule?
A: 104 % of control

Q: What about the T/C (dose: 400.0 mg/kg/injection, schedule: Q04DX002 (ip), vehicle: saline) of the same molecule?
A: 108 % of control

Q: With `CCC(N)Cc1ccc2c(c1)OCO2` (configuration not stated) as the molecule, how does the T/C (dose: 25.0 mg/kg/injection, schedule: Q01DX009 (ip), vehicle: saline) read?
A: 98 % of control

Q: What about the T/C (dose: 50.0 mg/kg/injection, schedule: Q01DX009 (ip), vehicle: saline) of the same molecule?
A: 93 % of control

Q: And the T/C (dose: 100.0 mg/kg/injection, schedule: Q01DX009 (ip), vehicle: saline)?
A: 96 % of control

Q: And the T/C [5]?
A: 95 % of control

Q: `O=C(c1ccccc1)C1OC1c1ccccc1` (configuration not stated) was tested. Which T/C [2] did it give?
A: 93 % of control

Q: What about the T/C [5] of the same molecule?
A: 101 % of control

Q: What about the T/C [6] of the same molecule?
A: 94 % of control

Q: What about the T/C [7] of the same molecule?
A: 98 % of control

Q: And the T/C [8]?
A: 94 % of control

Q: And the T/C [9]?
A: 101 % of control

Q: `O=NN(CCCl)C(=O)Nc1ccc2c(c1)OCO2` was tested. Which T/C (dose: 44.0 mg/kg/injection, schedule: Q01DX001 (ip), vehicle: other) did it give?
A: 156 % of control

Q: What about the T/C (dose: 66.0 mg/kg/injection, schedule: Q01DX001 (ip), vehicle: other) of the same molecule?
A: 216 % of control

Q: And the T/C (dose: 100.0 mg/kg/injection, schedule: Q01DX001 (ip), vehicle: other)?
A: 277 % of control

Q: What about the T/C (dose: 150.0 mg/kg/injection, schedule: Q01DX001 (ip), vehicle: other) of the same molecule?
A: 171 % of control

Q: What does the source list for `COc1ccc(/C=C/C(=O)c2ccc(Cl)cc2)c(OC)c1`?
A: T/C (dose: 100.0 mg/kg/injection, schedule: Q04DX003 (ip), vehicle: other): 101 % of control; T/C [10]: 95 % of control; T/C [11]: 93 % of control

Q: How did the T/C (dose: 1.5 mg/kg/injection, schedule: Q01DX001 (ip), vehicle: water) turn out when `CCNC1=C(C)C(=O)C2=C(C1=O)C(COC(N)=O)C1(OC)C3NC3CN21` (configuration not stated) was run?
A: 98 % of control

Q: What about the T/C (dose: 3.0 mg/kg/injection, schedule: Q01DX001 (ip), vehicle: water) of the same molecule?
A: 110 % of control

Q: And the T/C (dose: 6.0 mg/kg/injection, schedule: Q01DX001 (ip), vehicle: water)?
A: 110 % of control

Q: What about the T/C (dose: 12.0 mg/kg/injection, schedule: Q01DX001 (ip), vehicle: water) of the same molecule?
A: 114 % of control

Q: Which results are given for `c1ccc([O+](c2ccccc2)c2ccccc2)cc1`?
A: T/C (dose: 0.63 mg/kg/injection, schedule: Q01DX009 (ip), vehicle: saline with Tween-80): 102 % of control; T/C (dose: 1.25 mg/kg/injection, schedule: Q01DX009 (ip), vehicle: saline with Tween-80): 113 % of control; T/C (dose: 2.5 mg/kg/injection, schedule: Q01DX009 (ip), vehicle: saline with Tween-80): 107 % of control; T/C (dose: 5.0 mg/kg/injection, schedule: Q01DX009 (ip), vehicle: saline with Tween-80): 90 % of control and 112 % of control

Q: Which T/C (dose: 0.78 mg/kg/injection, schedule: Q01DX009 (ip), vehicle: water) does the source give for `C=CC1=NC(C)(C)CC(C)O1` (configuration not stated) here?
A: 104 % of control

Q: What about the T/C (dose: 1.56 mg/kg/injection, schedule: Q01DX009 (ip), vehicle: water) of the same molecule?
A: 102 % of control

Q: What about the T/C (dose: 3.13 mg/kg/injection, schedule: Q01DX009 (ip), vehicle: water) of the same molecule?
A: 105 % of control

Q: What about the T/C (dose: 6.25 mg/kg/injection, schedule: Q01DX009 (ip), vehicle: water) of the same molecule?
A: 104 % of control

Q: And the T/C (dose: 12.5 mg/kg/injection, schedule: Q01DX009 (ip), vehicle: water)?
A: 100 % of control

Q: What does the source list for `CCCCCCCCCCCCCC(CCCC)CCCCCCCC` (configuration not stated)?
A: T/C (dose: 100.0 mg/kg/injection, schedule: Q01DX001 (ip), vehicle: saline sonified): 107 % of control; T/C (dose: 200.0 mg/kg/injection, schedule: Q01DX001 (ip), vehicle: saline sonified): 95 % of control; T/C (dose: 400.0 mg/kg/injection, schedule: Q01DX001 (ip), vehicle: saline sonified): 102 % of control

Q: For `CCCC(CCC)(CNC(C)=O)C1CCCCC1`, which T/C (dose: 75.0 mg/kg/injection, schedule: Q01DX001 (ip), vehicle: saline) is on record?
A: 98 % of control

Q: And the T/C (dose: 150.0 mg/kg/injection, schedule: Q01DX001 (ip), vehicle: saline)?
A: 88 % of control

Q: And the T/C (dose: 300.0 mg/kg/injection, schedule: Q01DX001 (ip), vehicle: saline)?
A: 87 % of control

Q: Which results are given for `C[Si](C)(CCl)N[Si](C)(C)CCl`?
A: T/C [2]: 100 % of control; T/C [5]: 98 % of control; T/C [6]: 97 % of control; T/C [7]: 96 % of control; T/C [8]: 100 % of control; T/C [9]: 102 % of control

Q: With `O=c1[nH]cc(NCCCCc2ccccc2)c(=O)[nH]1` as the molecule, how does the T/C [1] read?
A: 94 % of control

Q: And the T/C (dose: 200.0 mg/kg/injection, schedule: Q01DX001 (ip), vehicle: saline with Tween-80)?
A: 95 % of control

Q: What about the T/C (dose: 400.0 mg/kg/injection, schedule: Q01DX001 (ip), vehicle: saline with Tween-80) of the same molecule?
A: 92 % of control

Q: For `O=C(O)C(Br)C(Br)c1ccccc1[N+](=O)[O-]` (configuration not stated), which T/C (dose: 12.5 mg/kg/injection, schedule: Q01DX009 (ip), vehicle: other) is on record?
A: 96 % of control

Q: And the T/C (dose: 25.0 mg/kg/injection, schedule: Q01DX009 (ip), vehicle: other)?
A: 103 % of control

Q: What about the T/C (dose: 50.0 mg/kg/injection, schedule: Q01DX009 (ip), vehicle: other) of the same molecule?
A: 100 % of control

Q: And the T/C (dose: 100.0 mg/kg/injection, schedule: Q01DX009 (ip), vehicle: other)?
A: 102 % of control

Q: And the T/C (dose: 200.0 mg/kg/injection, schedule: Q01DX009 (ip), vehicle: other)?
A: 97 % of control

Q: Which results are given for `CCO/C=C1\SC(=S)N(c2cccc(OC)c2)C1=O`?
A: T/C [5]: 96 % of control; T/C [7]: 106 % of control; T/C [9]: 101 % of control

Q: How did the T/C [5] turn out when `O=C(c1ccccc1)N(CCCCl)C(=O)N(CCCCl)C(=O)c1ccccc1` was run?
A: 105 % of control

Q: And the T/C [7]?
A: 100 % of control

Q: And the T/C [9]?
A: 108 % of control

Q: Which results are given for `O/N=C/c1cc[n+](CCC[n+]2ccc(/C=N/O)cc2)cc1`?
A: T/C (dose: 5.0 mg/kg/injection, schedule: Q01DX009 (ip), vehicle: saline sonified): 98 % of control; T/C (dose: 5.0 mg/kg/injection, schedule: Q04DX003 (ip), vehicle: saline): 103 % of control; T/C (dose: 10.0 mg/kg/injection, schedule: Q01DX009 (ip), vehicle: saline sonified): 98 % of control; T/C (dose: 10.0 mg/kg/injection, schedule: Q04DX003 (ip), vehicle: saline): 105 % of control; T/C (dose: 20.0 mg/kg/injection, schedule: Q01DX009 (ip), vehicle: saline sonified): 95 % of control; T/C (dose: 20.0 mg/kg/injection, schedule: Q04DX003 (ip), vehicle: saline): 101 % of control

Q: Which T/C [10] does the source give for `CCCCCCCCCC(O)CCCCCC` (configuration not stated) here?
A: 108 % of control

Q: What about the T/C [11] of the same molecule?
A: 96 % of control

Q: For `COc1ccc(NC(=O)C(Cl)Cl)ccc1=O`, which T/C [2] is on record?
A: 96 % of control

Q: And the T/C [5]?
A: 97 % of control

Q: What about the T/C [6] of the same molecule?
A: 95 % of control

Q: And the T/C [7]?
A: 92 % of control

Q: What about the T/C [9] of the same molecule?
A: 98 % of control

Q: For `CCOC(=O)CSc1ccccc1`, which T/C (dose: 25.0 mg/kg/injection, schedule: Q01DX005 (ip), vehicle: Klucel (hydroxypropylcellulose) (HPC)) is on record?
A: 93 % of control

Q: What about the T/C (dose: 50.0 mg/kg/injection, schedule: Q01DX005 (ip), vehicle: Klucel (hydroxypropylcellulose) (HPC)) of the same molecule?
A: 95 % of control

Q: What about the T/C (dose: 100.0 mg/kg/injection, schedule: Q01DX001 (ip), vehicle: saline) of the same molecule?
A: 102 % of control

Q: What about the T/C (dose: 100.0 mg/kg/injection, schedule: Q01DX005 (ip), vehicle: Klucel (hydroxypropylcellulose) (HPC)) of the same molecule?
A: 102 % of control

Q: And the T/C (dose: 200.0 mg/kg/injection, schedule: Q01DX001 (ip), vehicle: saline)?
A: 100 % of control

Q: What about the T/C (dose: 200.0 mg/kg/injection, schedule: Q01DX005 (ip), vehicle: Klucel (hydroxypropylcellulose) (HPC)) of the same molecule?
A: 95 % of control

Q: What about the T/C (dose: 400.0 mg/kg/injection, schedule: Q01DX001 (ip), vehicle: saline) of the same molecule?
A: 100 % of control

Q: What about the T/C (dose: 400.0 mg/kg/injection, schedule: Q01DX005 (ip), vehicle: Klucel (hydroxypropylcellulose) (HPC)) of the same molecule?
A: 95 % of control

Q: What does the source list for `CC12C(=O)C(C(c3ccccc3)=C1c1ccccc1)C(C(=O)O)C2C(=O)O` (configuration not stated)?
A: T/C [5]: 89 % of control; T/C [7]: 93 % of control; T/C [9]: 101 % of control

Q: Which T/C [3] does the source give for `CCCCOP(=O)(OCCCC)OC(=C(Cl)Cl)P(=O)(OCCCC)OCCCC` here?
A: 89 % of control

Q: And the T/C [4]?
A: 92 % of control
